One series deals with T1, rat brain α4β2 nAChR (Rattus norvegicus, UniProt P09483+P12390).
T1 construct: from tissue; host or cells: whole rat brain membranes
In words: [3H]-cytisine displacement binding, rat brain membranes.

The target of a further series is T2, rat α7 nAChR (Rattus norvegicus, UniProt Q05941).
T2 construct: from tissue; host or cells: rat brain membranes
Put plainly: biochemical. It is filed as binding.

The target in series [1] is T3, human fetal (TE671 cells) skeletal muscle nAChR (Homo sapiens, UniProt P02708+P07510+Q07001).
T3 construct: endogenous in cells; host or cells: TE671 cells (human)
T3 sequence (Q07001 22-517): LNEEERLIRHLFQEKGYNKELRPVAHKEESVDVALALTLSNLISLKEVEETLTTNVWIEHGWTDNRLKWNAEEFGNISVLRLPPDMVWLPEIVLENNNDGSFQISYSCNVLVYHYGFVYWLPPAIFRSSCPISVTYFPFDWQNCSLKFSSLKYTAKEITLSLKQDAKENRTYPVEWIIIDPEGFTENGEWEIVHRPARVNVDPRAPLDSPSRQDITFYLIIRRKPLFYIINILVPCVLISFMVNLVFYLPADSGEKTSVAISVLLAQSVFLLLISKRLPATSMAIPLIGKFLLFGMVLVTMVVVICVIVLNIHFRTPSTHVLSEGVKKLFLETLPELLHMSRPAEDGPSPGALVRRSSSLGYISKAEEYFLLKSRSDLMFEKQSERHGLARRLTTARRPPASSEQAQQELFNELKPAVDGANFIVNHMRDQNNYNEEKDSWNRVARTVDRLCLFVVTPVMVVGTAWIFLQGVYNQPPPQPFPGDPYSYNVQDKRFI
T3 sequence (P02708 21-457): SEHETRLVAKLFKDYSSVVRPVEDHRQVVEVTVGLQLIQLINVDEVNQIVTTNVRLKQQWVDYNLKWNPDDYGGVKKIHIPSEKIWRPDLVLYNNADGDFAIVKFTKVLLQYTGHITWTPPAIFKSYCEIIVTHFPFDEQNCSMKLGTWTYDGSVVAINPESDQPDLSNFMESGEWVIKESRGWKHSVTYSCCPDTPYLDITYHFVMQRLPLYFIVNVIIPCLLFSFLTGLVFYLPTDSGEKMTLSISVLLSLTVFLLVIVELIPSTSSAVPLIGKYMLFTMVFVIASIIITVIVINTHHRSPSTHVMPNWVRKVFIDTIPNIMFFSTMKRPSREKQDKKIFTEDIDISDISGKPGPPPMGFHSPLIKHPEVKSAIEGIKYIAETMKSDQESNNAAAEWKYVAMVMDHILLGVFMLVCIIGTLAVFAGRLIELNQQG
T3 sequence (P07510 23-517): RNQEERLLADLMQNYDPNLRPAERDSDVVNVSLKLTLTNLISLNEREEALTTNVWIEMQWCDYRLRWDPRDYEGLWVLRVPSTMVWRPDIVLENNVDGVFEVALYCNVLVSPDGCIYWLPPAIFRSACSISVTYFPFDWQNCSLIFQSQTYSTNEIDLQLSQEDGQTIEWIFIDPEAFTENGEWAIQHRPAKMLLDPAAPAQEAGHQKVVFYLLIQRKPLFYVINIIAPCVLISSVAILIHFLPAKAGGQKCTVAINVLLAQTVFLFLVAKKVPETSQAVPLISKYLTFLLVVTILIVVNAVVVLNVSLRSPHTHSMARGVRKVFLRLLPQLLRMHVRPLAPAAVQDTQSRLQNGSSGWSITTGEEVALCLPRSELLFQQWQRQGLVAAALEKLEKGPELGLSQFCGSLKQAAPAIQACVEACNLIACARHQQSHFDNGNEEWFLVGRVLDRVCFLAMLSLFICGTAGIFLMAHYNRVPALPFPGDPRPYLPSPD
T3 sequence (P11230 24-501, further chain): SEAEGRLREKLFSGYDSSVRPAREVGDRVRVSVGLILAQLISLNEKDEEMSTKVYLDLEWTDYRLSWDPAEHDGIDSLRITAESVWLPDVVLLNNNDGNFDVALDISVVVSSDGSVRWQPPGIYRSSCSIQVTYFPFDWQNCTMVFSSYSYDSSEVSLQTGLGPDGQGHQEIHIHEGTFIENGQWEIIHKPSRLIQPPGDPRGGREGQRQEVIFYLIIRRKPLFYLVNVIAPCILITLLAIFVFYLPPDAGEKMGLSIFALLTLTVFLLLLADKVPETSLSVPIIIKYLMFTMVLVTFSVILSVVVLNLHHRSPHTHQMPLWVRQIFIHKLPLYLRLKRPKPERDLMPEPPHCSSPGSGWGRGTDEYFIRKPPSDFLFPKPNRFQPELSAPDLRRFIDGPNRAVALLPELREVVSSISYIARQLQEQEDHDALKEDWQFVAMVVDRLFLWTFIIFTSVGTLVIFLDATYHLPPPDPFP
In words: Activation of human fetal skeletal muscle nAChR (TE671 cells), membrane depolarization FlexStation assay. It is filed as cell-based. On the procedure:
Figure 4 Activation of the human fetal (TE671 cells) skeletal muscle nAChR by the various stable anabaseine analogs measured by membrane depolarization using the FlexStation assay. Each point is generally the mean of four separate measurements. Responses were normalized to the 5 μM epibatidine response. Potency and efficacy estimates from these curves are found in Table 1.
(§1) Our experimental protocol was based on the initial study of Fitch et al.. Cells were seeded at a density of roughly 5 × 10^4 to 10^5 cells/well in 96-well flat-bottom black wall culture plates coated with 50 μg /ml poly-D-lysine hydrobromide (Sigma-Aldrich, 70–150 kDa) and grown overnight in 100 μL culture medium. A proprietary membrane potential dye obtained from Molecular Devices (San Diego, CA, USA) was prepared by dissolving one bottle of dye into 30 mL of Hanks Saline (pH = 7.4) containing 20 mM HEPES buffer. The cells were incubated with 100 μL of dye for 30 min at 37 °C prior to the robotically controlled concentration-response experiment. Serial dilutions of a compound for dose-response analysis were prepared in 96-well plates by evaporation of a methanolic stock solution and then reconstituted in the appropriate volume of Hanks saline. Fluid transfer and readings were performed by a FlexStation fluorimeter (Molecular Devices). Excitation and emission wavelengths were set to 530 nm and 565 nm with a cutoff of 550 nm. The first 17 s were used as a basal reading. At 18 s, a test compound was added to determine the EC50, followed by addition of 25 μL KCl (40 mM final concentration) at 160 s to serve as a fluorescence calibrant. Compounds that had no measurable depolarizing activity on the TsA201 cells were then tested for their ability to inhibit a 5 µM control ACh response. Data were fitted and graphed with Prism (GraphPad) to determine the EC50.

The target in series [2] is T4, Torpedo electric organ membrane nAChRs (Tetronarce californica, UniProt P02710+P02714+P02718).
T4 construct: from tissue; host or cells: Torpedo electric organ membranes
Put plainly: biochemical. It is filed as binding.

Series [3] concerns the target T5, human α4β2 neuronal nAChR expressed in tsA201 cells (Homo sapiens, UniProt P17787+P43681).
T5 construct: expressed in transfected cells
Put plainly: Activation of human α4β2 neuronal nAChR, membrane depolarization FlexStation assay. The class given is cell-based. How it is done: Figure 3 Activation of the human α4β2 neuronal nAChR expressed in tsA201 cells as measured by membrane depolarization using the FlexStation assay. Each point generally is the mean of four separate measurements. All responses were normalized with respect to the response of the cells to 0.5 μM epibatidine. Potency and efficacy estimates from these curves are found in Table 1.
TsA201 cells expressing human α4β2 were maintained in media consisting of Dulbecco’s Modified Eagle medium supplemented with 10% FBS, 100 units/mL penicillin and 100 μg/mL streptomycin, 2 mM L-glutamine, 0.5 mg/mL zeocin and 0.6 mg/mL geneticin [55]. Cells were grown in 75 cm^2 culture flasks, which were housed in a humidified incubator (Fisher Scientific, Atlanta, GA, USA at 37 °C in an atmosphere of 5% CO2. They were grown to around 80–90% confluence after harvesting with 0.25% trypsin and being split weekly at a subcultivation ratio of between 1:6 and 1:10.
as §1

Series [4] in a line: Ionization and ring-chain form distribution in water. The class given is physicochemical. From the text: Figure 2 Concentrations of the three major forms of anabaseine as a function of pH as determined by UV spectrophotometry. Left Ordinate: Concentration of each form expressed as % of the total anabaseine concentration. The red curve is the estimated cyclic imine concentration and the blue curve is the concentration of the cyclic iminium or the monocationic ammonium-ketone form of anabaseine (Assuming that KH = 1.0, the concentrations of these ionized forms are equal). Right ordinate: pH dependence of anabaseine inhibition of [^3H]-MCC binding to rat brain α4β2 receptors (Standard error bars included). Anabaseine inhibition (mean ± SEM) at each pH was the average of six replicate measurements.
Since the two monocationic forms show the same pH dependence and the same concentration when expressed as % of total anabaseine, another approach was required to assess their activities separately. We resorted to synthesizing and testing stable analogs that resemble the three anabaseine forms. […] The monocationic ammonium-ketone open-chain form analog selected was 5-methylamino-1-(3-pyridyl)-1-pentanone, MAPP, shown in Figure 1; it mainly ([…]) exists in their open-chain form in water at physiological pH; its cyclic imine or iminium form, N-methylanabaseine, is present in very small concentration (≤5%). […]

Series [5] deals with vertebrate brain and neuromuscular nAChRs. In words: Overall comparison of agonist potency and binding affinity at vertebrate nAChRs. To be noted: for activity relative to that predicted if the one form was solely active: several vertebrate brain and neuromuscular nAChRs. From the text: PTHP was the only anabaseine analog that approached anabaseine in potency and binding affinity.
The ability of a variety of 2-(aryl)-1,4,5,6-tetrahydropyrmidines to block neuromuscular nAChRs and produce teratogenic effects in chick embryos was reported long ago [45, 46]. Some of these compounds were reported to be nAChR agonists. The only study of PTHP on neurons was that of Upshall et al. on leech Retzius cells. Our results also indicate that PTHP is a potent agonist at neuronal as well as neuromuscular nAChRs. […] For PTHP to be equipotent with anabaseine, based on the I^+ form being the only active form, its EC50 would need to be ~1/3 of the EC50 of anabaseine, since the anabaseine (I^+) is ~1/3 of its total concentration.

In series [6] the target is T6, rat brain α4β2 nAChRs (Rattus norvegicus, UniProt P09483+P12390).
T6 construct: from tissue; host or cells: whole rat brain membranes
T6 sequence (P09483 31-630): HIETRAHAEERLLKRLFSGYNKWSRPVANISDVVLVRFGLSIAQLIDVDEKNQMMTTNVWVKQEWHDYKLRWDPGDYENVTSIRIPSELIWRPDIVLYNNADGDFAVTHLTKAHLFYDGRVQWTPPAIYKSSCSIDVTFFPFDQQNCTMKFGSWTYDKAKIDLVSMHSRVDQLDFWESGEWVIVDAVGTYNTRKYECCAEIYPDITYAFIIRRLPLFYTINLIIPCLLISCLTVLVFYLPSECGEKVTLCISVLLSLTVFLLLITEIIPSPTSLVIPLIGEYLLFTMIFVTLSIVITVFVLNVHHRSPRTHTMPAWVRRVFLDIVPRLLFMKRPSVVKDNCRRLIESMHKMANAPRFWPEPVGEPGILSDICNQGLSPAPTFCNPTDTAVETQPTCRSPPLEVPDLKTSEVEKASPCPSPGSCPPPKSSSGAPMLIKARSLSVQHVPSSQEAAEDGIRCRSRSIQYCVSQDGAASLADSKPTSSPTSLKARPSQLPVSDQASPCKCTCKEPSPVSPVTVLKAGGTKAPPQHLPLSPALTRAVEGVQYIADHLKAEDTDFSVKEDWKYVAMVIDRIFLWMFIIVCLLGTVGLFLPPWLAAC
T6 sequence (P12390 25-500): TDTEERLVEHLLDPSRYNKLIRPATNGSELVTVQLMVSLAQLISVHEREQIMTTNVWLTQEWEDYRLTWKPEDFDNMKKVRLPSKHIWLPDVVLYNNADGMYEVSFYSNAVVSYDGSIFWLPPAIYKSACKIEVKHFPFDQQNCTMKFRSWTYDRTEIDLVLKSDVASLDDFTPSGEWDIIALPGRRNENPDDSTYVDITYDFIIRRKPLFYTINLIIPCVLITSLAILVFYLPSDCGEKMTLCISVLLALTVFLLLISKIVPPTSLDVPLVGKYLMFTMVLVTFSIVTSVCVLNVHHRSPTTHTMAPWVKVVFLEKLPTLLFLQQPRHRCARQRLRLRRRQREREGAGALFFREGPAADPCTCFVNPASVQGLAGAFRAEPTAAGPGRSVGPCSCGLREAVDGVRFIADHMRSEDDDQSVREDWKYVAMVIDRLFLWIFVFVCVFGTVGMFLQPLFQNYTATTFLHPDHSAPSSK
In words: [3H]-methylcarbamylcholine binding to rat brain membranes, pH dependence. From the text:
Initially, we measured the pH-dependent binding of [^3H]-methylcarbamylcholine ([^3H]-MCC) to rat brain α4β2 nAChRs. In the absence of anabaseine we found a large (approximately 3-fold) enhancement of [^3H]-MCC binding as pH increased from 6.0 to 7.8. While interesting in its own regard, since MCC is permanently ionized, this marked pH dependence of [^3H]-MCC nAChR affinity complicated the analysis of the effect of pH on anabaseine binding, which was indirectly measured by [^3H]-MCC displacement. Anabaseine inhibition of [^3H]-MCC binding at each pH in Figure 2 is expressed with respect to the binding of [^3H]-MCC alone at the same pH, so as to compensate for [^3H]-MCC binding pH dependence. […]
Figure 2 Concentrations of the three major forms of anabaseine as a function of pH as determined by UV spectrophotometry. Left Ordinate: Concentration of each form expressed as % of the total anabaseine concentration. […]
[^3H]-[…] ([^3H]-MCC) binding assays with rat brain membranes were carried out as previously reported with a final concentration of 0.5 nM [^3H]-MCC [8, 54]; 2.8 µM atropine sulfate (Sigma-Aldrich) was added to inhibit binding to muscarinic receptors. […] Nonspecific binding was measured in the presence of 1 mM (S)-nicotine hydrogen tartrate (Sigma-Aldrich). […]

A further series addresses T7, human GABAA receptor (UniProt P28472+P62813).
T7 construct: host or cells: WSS1 cells (HEK cell line)
In words: GABAA receptor activation, membrane depolarization FlexStation assay (WSS1 cells). The class given is cell-based. To be noted: human GABAA receptor in HEK-derived WSS1 cells. On the procedure: Figure 5 Investigation of possible activation of the human GABAA receptor measured by membrane depolarization using a FlexStation assay. Each point is the mean of three separate measurements.
WSS1 cells from ATCC (Manassas, VA, USA) which express functional GABAA receptors were cultured as previously described by Wong et al.. The cells were grown to near confluence and then transferred to black well, clear bottom 96-well assay plates (Corning Incorporated, Corning, NY, USA) 12–18 h prior to the assay. Molecular Devices blue dye (Sunnyvale, CA, USA) was reconstituted as previously described. The WSS1 cells were allowed to come to room temperature, the culture medium was then aspirated, replaced with the blue dye and equilibrated for 30 min before being placed on a FlexStation 3 plate reader (Molecular Devices, Sunnyvale, CA, USA). […] Programmed readings and data analysis were performed as previously described.

For series [7] the following is noted: cited from earlier work.
For series [8] the following is noted: no reference given; cited from earlier work.
Series [9] has as its target T6, rat brain α4β2 nAChRs. To be noted: read-out: Kd of radioligand with rat brain membranes; cited from earlier work.
[10] abbreviates: displacement of [3H]-cytisine, rat brain membranes, read-out: Ki Neuronal nAChR Rat α4β.

For orientation: Ki means a dissociation constant, usually derived from enzyme kinetics or from competition with a known ligand. A word on the EC50: it is the midpoint of the concentration-response curve. By IC50 is commonly meant the concentration that inhibits the measured activity by half. As usually defined, the Kd is a measure of binding affinity in units of concentration.

“Also recorded” adds a separate entry of the source. Like-named read-outs stand apart in the source and are kept apart here.

T2 sequence (Q05941 23-502): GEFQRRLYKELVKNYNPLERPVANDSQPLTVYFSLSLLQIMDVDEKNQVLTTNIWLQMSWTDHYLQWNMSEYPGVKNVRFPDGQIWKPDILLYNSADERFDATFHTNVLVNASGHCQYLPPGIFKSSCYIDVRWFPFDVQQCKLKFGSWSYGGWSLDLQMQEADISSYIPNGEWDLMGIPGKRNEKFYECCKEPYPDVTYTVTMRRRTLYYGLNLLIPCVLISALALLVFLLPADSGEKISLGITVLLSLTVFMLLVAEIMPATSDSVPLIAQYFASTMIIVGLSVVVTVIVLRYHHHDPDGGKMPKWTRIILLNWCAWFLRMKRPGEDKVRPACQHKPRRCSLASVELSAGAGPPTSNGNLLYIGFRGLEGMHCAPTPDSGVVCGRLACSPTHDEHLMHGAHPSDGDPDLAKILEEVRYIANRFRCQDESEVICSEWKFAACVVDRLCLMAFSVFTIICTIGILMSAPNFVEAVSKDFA
T1 sequence (P09483 31-630): as the sequence (P09483 31-630) above
T1 sequence (P12390 25-500): as the sequence (P12390 25-500) above
T5 sequence (P43681 29-627): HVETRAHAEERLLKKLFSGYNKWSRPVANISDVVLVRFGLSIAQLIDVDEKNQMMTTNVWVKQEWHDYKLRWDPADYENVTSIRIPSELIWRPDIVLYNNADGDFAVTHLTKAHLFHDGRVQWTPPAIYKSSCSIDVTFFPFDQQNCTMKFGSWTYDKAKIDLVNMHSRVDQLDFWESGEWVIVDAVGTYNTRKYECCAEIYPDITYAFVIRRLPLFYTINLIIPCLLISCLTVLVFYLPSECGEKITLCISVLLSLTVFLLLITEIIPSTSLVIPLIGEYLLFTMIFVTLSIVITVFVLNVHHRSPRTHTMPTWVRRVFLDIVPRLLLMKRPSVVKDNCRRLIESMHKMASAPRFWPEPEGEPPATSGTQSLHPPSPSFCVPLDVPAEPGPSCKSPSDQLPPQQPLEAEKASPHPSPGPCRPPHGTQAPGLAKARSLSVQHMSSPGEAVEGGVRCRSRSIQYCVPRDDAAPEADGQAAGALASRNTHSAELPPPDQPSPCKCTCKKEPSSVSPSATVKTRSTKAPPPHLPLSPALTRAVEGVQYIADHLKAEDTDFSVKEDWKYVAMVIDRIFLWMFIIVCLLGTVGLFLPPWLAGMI
T5 sequence (P17787 26-502): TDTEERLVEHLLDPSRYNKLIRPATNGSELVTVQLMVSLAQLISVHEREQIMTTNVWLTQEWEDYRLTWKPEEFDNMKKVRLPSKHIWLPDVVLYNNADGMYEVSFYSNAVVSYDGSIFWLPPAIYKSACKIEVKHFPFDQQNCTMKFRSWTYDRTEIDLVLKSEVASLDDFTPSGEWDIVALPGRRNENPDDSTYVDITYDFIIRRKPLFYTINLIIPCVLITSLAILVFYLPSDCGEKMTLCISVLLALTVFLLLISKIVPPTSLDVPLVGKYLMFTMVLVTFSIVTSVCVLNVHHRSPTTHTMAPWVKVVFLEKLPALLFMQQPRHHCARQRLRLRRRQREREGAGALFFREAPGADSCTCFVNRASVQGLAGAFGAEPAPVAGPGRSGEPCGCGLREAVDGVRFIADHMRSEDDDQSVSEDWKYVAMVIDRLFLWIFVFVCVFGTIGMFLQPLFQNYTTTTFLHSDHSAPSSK

With `c1ccc(-c2cccnc2)nc1` [2,3′-Bipyridyl, 2,3′-bipyridyl], the Ki at rat brain α4β2 nAChR (setting [10]) is more than 50000 nM; on rat α7 nAChR, more than 2300 µM. Besides, the figures for the EC50 in [1] and in [3] were 660 ± 60 µM and more than 1000 µM, respectively. For the same molecule, in [2], the IC50 was determined as 343000 ± 48000 nM. The “fraction of molecules unionized” value in series [4] (pH 7.4) is on record as more than 99.9%. In series [5], the “activity relative to that predicted if the one form was solely active” value is recorded as not above 1%.

For the molecule `c1cncc(C2=NCCCC2)c1` [Anabaseine, anabaseine, reference compound], the “pH dependence of inhibition (displacement) of [3H]-MCC binding” value at rat brain α4β2 nAChRs [6] (fixed anabaseine concentration, pH 5.8 to 7.8, relative to [3H]-MCC alone at the same pH) is on record as “did decrease with increased pH”. In addition, the Ki amounted to 96 ± 10 nM on rat brain α4β2 nAChR and 1.87 ± 0.1 µM at rat α7 nAChR (read-out: Ki Neuronal nAChR Rat α7). Moreover, the concentration for a half-maximal effect (EC50) in [1] (TE671 cells, membrane depolarization, normalized to 5 μM epibatidine response, read-out: EC50 Neuromuscular nAChR Human TE671) stood at 1.2 µM; in series [3] (tsA201 cells, membrane depolarization, normalized to 0.5 μM epibatidine response, read-out: EC50 Neuronal nAChR Human α4β2), 2.85 ± 1 µM. Also, on human GABAA receptor, the “GABAA receptor agonist activity” value is reported as “not GABAA agonists; also recorded: no activity was detected”. Besides, the “cyclic iminium (I+) form as fraction of total concentration” value in [7] (pH 7.4) is listed as ~ 1/3. In series [2] (read-out: IC50 Neuromuscular nAChR Torpedo Electric Organ), the IC50 amounted to 290 ± 180 nM.

Take `CNCCCCC(=O)c1cccnc1` [MAPP, 5-methylamino-1-(3-pyridyl)-1-pentanone]: the results for the Ki at rat brain α4β2 nAChR (setting [10]) and at rat α7 nAChR were 10000 nM and more than 2000 µM, respectively. In addition, the figures for the EC50 in series [1] and in series [3] were more than 1000 µM and more than 2000 µM, respectively. Moreover, the “concentration of cyclic imine or iminium form (N-methylanabaseine)” value in series [7] (in water at physiological pH) is not above 5%. For the same molecule, the IC50 in series [2] is more than 500000 nM. Besides, the “activity relative to that predicted if the one form was solely active” value in series [5] is reported as not above 1%.

On to `Cl.c1cncc(C2=NCCCN2)c1` [PTHP, 2-(3-pyridyl)-1,4,5,6-tetrahydropyrimidine hydrochloride], for which the Ki at rat brain α4β2 nAChR (setting [10]) was determined as 380 ± 70 nM; at rat α7 nAChR, 1.54 ± 0.76 µM. In addition, the EC50 in series [1] turned out to be 1.7 ± 0.3 µM; in series [3] it was 3.64 ± 1.2 µM. Also, the “pKa of amidinium group” value in series [8] is more than 10. The molecule also returned an IC50 in series [2] of 470 ± 10 nM. Besides, in series [4] (pH 7.4, predicted), the fraction ionized is recorded as more than 99%. Also, the “potency relative to that predicted for the anabaseine cyclic iminium form” value in series [5] (from Figure 3, Figure 4 and Table 1) is listed as “approximately 30%”.

For the molecule `CNC(=O)OCC[N+](C)(C)C` [[^3H]-MCC, [^3H]-methylcarbamylcholine], the Kd at rat brain α4β2 nAChRs [9] is 11 nM.

For `[3H]CNC(=O)OCC[N+](C)(C)C` [[^3H]-MCC, [^3H]-methylcarbamylcholine], the “enhancement of binding with increasing pH” value on rat brain α4β2 nAChRs [6] (pH increased from 6.0 to 7.8, absence of anabaseine) is reported as “approximately 3 fold”.

For the molecule `c1cncc(C2=NCCC2)c1` [myosmine], at human GABAA receptor, the “GABAA receptor agonist activity” value is given as “not GABAA agonists; also recorded: no activity was detected”.

(Values after paper PMC6891768 (Marine Drugs, 2019).)
